Results on 27 molecules are retold here after patent US20230031406A1, “COMPOUNDS AND COMPOSITIONS FOR TREATING CONDITIONS ASSOCIATED WITH NLRP ACTIVITY” (Novartis AG, priority 2018, published 2023).

Structures are written as SMILES. Where only a bound is given, the exact number is not on record here.

The first test deals with PMA-differentiated THP-1 cells. The experiment in a line: IL-1β production in PMA-differentiated THP-1 cells stimulated with gramicidin (hTHP-1 assay containing 2% fetal bovine serum; Procedures 1 and 2). The settings on record: Homo sapiens, THP-1, Table B1; 2% fetal bovine serum; class symbols; read-out: Average IC50 of compounds in hTHP-1 assay: hTHP-1 IC50. Format: cell-based, human. Put shortly:
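THP-1 cells were differentiated with PMA (20 ng/ml, 16-18 h), detached, and plated at 50,000 cells/well in RPMI 1640 with 2% FBS. They were pre-treated with compound (0.0017–100 μM, 0.37% DMSO) for 1 h, then stimulated with gramicidin (5 μM) for 2 h. Supernatant IL-1β was measured by HTRF.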
As for `CC(C)(O)c1cc(S(N)(=O)=NC(=O)Nc2c3c(nc4c2CCC4)CCC3)nn1-c1ccccc1` (stereo not drawn) [Compound 159, N-((1,2,3,5,6,7-hexahydrodicyclopenta[b,e]pyridin-8-yl)carbamoyl)-5-(2-hydroxypropan-2-yl)-1-phenyl-1H-pyrazole-3-sulfonimidamide], the IC50 was in the range of 1000 to 5000 nM.

The same test, now with this note: Homo sapiens, THP-1, Table B1; 2% fetal bovine serum; numeric bounds; read-out: Average IC50 of compounds in hTHP-1 assay: hTHP-1 IC50.
Consider `CC1CCc2c1nc1c(c2NC(=O)N=S(N)(=O)c2ccc(CN(C)C)cc2)CCC1` (single isomer, unassigned) [Compound 134aa, (S,S) or (S,R)-4-((di-methylamino)methyl)-N′-((3-methyl-1,2,3,5,6,7-hexahydrodicyclo-penta[b,e]pyridin-8-yl)carbamoyl)benzene-sulfonimidamide], for which the IC50 was more than 30000 nM.

The test is the same for the next values; noted with them: Homo sapiens, THP-1, Table B2; 2% fetal bovine serum; class symbols; read-out: hTHP-1 IC50.
For the molecule `Cc1c(C(C)(C)C)nc2c(c1NC(=O)N=S(N)(=O)c1cc(C(C)(C)O)cs1)CCC2` (stereo not drawn) [Compound 657, N′-((2-(tert-butyl)-3-methyl-6,7-dihydro-5H-cyclopenta[b]pyridin-4-yl)carbamoyl)-4-(2-hydroxypropan-2-yl)thiophene-2-sulfonimidamide], the IC50 is 5000 to 30000 nM.

For the molecule `Cc1c(C2(F)CC2)nc2c(c1NC(=O)N=S(N)(=O)c1cc(C(C)(C)O)cs1)CCC2` (stereo not drawn) [Compound 722], the IC50 lay within 1000 to 5000 nM.

As to `CC(C)n1cc(Cl)c(S(N)(=O)=NC(=O)Nc2c3c(nc4c2CCC4)CCC3)n1` (stereo not drawn) [Compound 694, 4-Chloro-N′-((1,2,3,5,6,7-hexahydrodicyclopenta[b,e]pyridin-8-yl)carbamoyl)-1-isopropyl-1H-pyrazole-3-sulfonimidamide], the IC50 was in the range of 1000 to 5000 nM.

Turning to `C[C@@H]1CCc2c1nc1c(c2NC(=O)N=S(N)(=O)c2ccn(-c3ccccc3)n2)CCC1` (stereo partly drawn) [Compound 646a], the half-maximal inhibitory concentration (IC50) lay within 1000 to 5000 nM.

With `CC(C)(O)c1cc(C#N)cc(S(N)(=O)=NC(=O)Nc2c3c(nc4c2CCC4(C)C)CCC3)c1` (single isomer, unassigned) [Compound 674b, (R) or (S)-3-Cyano-N′-((3,3-dimethyl-1,2,3,5,6,7-hexahydrodicyclopenta [b,e]pyridin-8-yl)carbamoyl)-5-(2-hydroxypropan-2-yl)benzene-sulfonimidamide], the IC50 was in the range of 1000 to 5000 nM.

For the molecule `C[C@@H]1CCc2c1nc1c(c2NC(=O)N=S(N)(=O)c2ccn(C(C)(F)F)n2)CCC1` (stereo partly drawn) [Compound 723c], the half-maximal inhibitory concentration (IC50) lay in the range of 200 to 1000 nM.

The test is the same for the next values; noted with them: Homo sapiens, THP-1, Table B2; 2% fetal bovine serum; numeric bounds; read-out: hTHP-1 IC50.
With `CC(C)(O)c1sc(S(N)(=O)=NC(=O)Nc2c3c(nc4c2CCC4)CCC3)cc1F` (single isomer, unassigned) [Compound 678b, (S) or (R)-4-Fluoro-N′-((1,2,3,5,6,7-hexahydrodicyclopenta [b,e]pyridin-8-yl)carbamoyl)-5-(2-hydroxypropan-2-yl)thiophene-2-sulfonimidamide], the 50% inhibitory concentration (IC50) was more than 30000 nM.

As for `CC(C)(O)c1scc(S(N)(=O)=NC(=O)Nc2c3c(nc4c2CCC4)CCC3)c1F` (single isomer, unassigned) [Compound 701b, (S) or (R)-4-Fluoro-N′-((1,2,3,5,6,7-hexahydrodicyclopenta [b,e]pyridin-8-yl)carbamoyl)-5-(2-hydroxypropan-2-yl)thiophene-3-sulfonimidamide], the IC50 is more than 30000 nM.

Turning to `CCC1CCc2c1nc1c(c2NC(=O)N=S(N)(=O)c2cnc(C(C)(C)O)s2)CCC1` (single isomer, unassigned) [Compound 662b, (S, R) or (S, S) or (R, S) or (R, R)-N′-((3-Ethyl-1,2,3,5,6,7-hexaliydrodicyclopenta [b,e]pyridin-8-yl)caibamoyl)-2-(2-hydroxypropan-2-yl)thiazole-5-sulfonimidamide], the half-maximal inhibitory concentration (IC50) was more than 30000 nM.

With `Cc1c(C2(C)CC2)nc2c(c1NC(=O)N=S(N)(=O)c1cnc(C(C)(O)CO)s1)CCC2` (stereo not drawn) [Compound 707], the IC50 is more than 30000 nM.

Still in this test, the particulars now being: Homo sapiens, THP-1, Table B3; hTHP-1 assay, 2% fetal bovine serum; class symbols; read-out: IC50.
As to `CC(C)(O)c1ncc([S@](N)(=O)=NC(=O)Nc2c3c(nc(C(F)(F)F)c2C2CC2)CCC3)s1` [Example 577, (R)—N′-((3-cyclopropyl-2-(trifluoromethyl)-6,7-dihydro-5H-cyclopenta[b]pyridin-4-yl)carbamoyl)-2-(2-hydroxypropan-2-yl)thiazole-5-sulfonimidamide], the IC50 fell in the range of 1000 to 5000 nM.

Consider `NS(=O)(=NC(=O)Nc1c2c(nc(C3CC3)c1C1CC1)CCC2)c1ccn(C(F)F)n1` (stereo not drawn) [Example 571, N′-((2,3-dicyclopropyl-6,7-dihydro-5H-cyclopenta[b]pyridin-4-yl)calbamoyl)-1-(difluoromethyl)-1H-pymzole-3-sulfonimidamide], for which the concentration for half-maximal inhibition (IC50) lay within 1000 to 5000 nM.

Regarding `CCn1nc(S(N)(=O)=NC(=O)Nc2c3c(nc4c2CCC4(C)C)CCC3)cc1CO` (single isomer, unassigned) [Example 726, (R) or (S)-N′-((3,3-dimethyl-1,2,3,5,6,7-hexahydrodicyclopenta[b,e]pyridin-8-yl)carbamoyl)-1-ethyl-5-(hydroxymethyl)-1H-pyrazole-3-sulfonimidamide], the IC50 lay in the range of 200 to 1000 nM.

Staying with this test, now noted: Homo sapiens, THP-1, Table B4; 2% fetal bovine serum; class symbols; read-out: hTHP-1 IC50.
As for `C[C@H]1CCc2c1nc1c(c2NC(=O)N=S(N)(=O)c2cnc([C@](C)(O)CO)s2)CCC1` (single isomer, unassigned) [Example 732], the concentration for half-maximal inhibition (IC50) was 1000 to 5000 nM.

With `NS(=O)(=NC(=O)Nc1c2c(nc3c1CCC3)CCC2)c1nn(C(F)F)cc1F` (single isomer, unassigned) [Example 759, (R) or (S)-1-(difluoromethyl)-4-fluoro-N′-((1,2,3,5,6,7-hexahydrodicyclopenta[b,e]pyridin-8-yl)carbamoyl)-1H-pyrazole-3-sulfonimidamide], the IC50 was in the range of 200 to 1000 nM.

As for `NS(=O)(=NC(=O)Nc1c2c(nc(C3CC3)c1C1CC1)CCC2)c1nn(C(F)F)cc1F` (stereo not drawn) [Example 737, N′-((2,3-dicyclopropyl-6,7-dihydro-5H-cyclopenta[b]pyridin-4-yl)carbamoyl)-1-(difluoromethyl)-4-fluoro-1H-pyrazole-3-sulfonimidamide], the half-maximal inhibitory concentration (IC50) was 200 to 1000 nM.

Staying with this test, now noted: Table B2; 2% fetal bovine serum; class symbols; read-out: hTHP-1 IC50.
Turning to `CCn1ccc(S(N)(=O)=NC(=O)Nc2c3c(nc4c2CCC4(C)C)CCC3)n1` (single isomer, unassigned) [Compound 697b, (R) or (S)-N′-((3,3-dimethyl-1,2,3,5,6,7-hexahydrodicyclopenta [b,e]pyridin-8-yl)carbamoyl)-1-ethyl-1H-pyrazole-3-sulfonimidamide], the IC50 lay in the range of 40 to 200 nM.

`Cc1nc2c(c(NC(=O)N=S(N)(=O)c3cc(C(C)(C)O)cs3)c1C1CC1)CCC2` (single isomer, unassigned) [Compound 623b, (S) or (R)-N′-((3-cyclopropyl-2-methyl-6,7-dihydro-5H-cyclopenta[b]pyridin-4-yl)carbamoyl)-4-(2-hydroxypropan-2-yl)thiophene-2-sulfonimidamide]: the IC50 lay within 5000 to 30000 nM.

`Cc1c(C(F)(F)F)nc2c(c1NC(=O)N=S(N)(=O)c1cnc(C(C)(O)CO)s1)CCC2` (single isomer, unassigned) [Compound 605h, (S, R) or (R, R)-2-(1,2-Dihydroxypropan-2-yl)-N′-((3-methyl-2-(trifluoromethyl)-6,7-dihydro-5H-cyclopenta[b]pyridin-4-yl)carbamoyl) thiazole-5-sulfonimidamide]: the IC50 lay within 200 to 1000 nM.

With `Cc1c(C(F)(F)F)nc2c(c1NC(=O)N=S(N)(=O)c1cnc(C(C)(O)CO)s1)CCC2` (single isomer, unassigned) [Compound 605c], the IC50 lay in the range of 200 to 1000 nM.

`CCc1c(C(F)(F)F)nc2c(c1NC(=O)N=S(N)(=O)c1sc(C(C)(C)O)cc1F)CCC2` (single isomer, unassigned) [Compound 611a, (S) or (R)-N′-((3-ethyl-2-(trifluoromethyl)-6,7-dihydro-5H-cyclopenta[b]pyridin-4-yl)carbamoyl)-3-fluoro-5-(2-hydroxypropan-2-yl)thiophene-2-sulfonimidamide]: the IC50 lay in the range of 5000 to 30000 nM.

Still in this test, the particulars now being: Table B3; hTHP-1 assay, 2% fetal bovine serum; class symbols; read-out: IC50.
Take `CC(C)(O)c1cc(F)c(S(N)(=O)=NC(=O)Nc2c3c(nc(C(F)(F)F)c2C2CC2)CCC3)s1` (single isomer, unassigned) [Example 659, (R) or (S)-N′-((3-cyclopropyl-2-(trifluoromethyl)-6,7-dihydro-5H-cyclopenta[b]pyridin-4-yl)carbamoyl)-3-fluoro-5-(2-hydroxypropan-2-yl) thiophene-2-sulfonimidamide]: the IC50 lay within 200 to 1000 nM.

The test is the same for the next values; noted with them: Table B4; 2% fetal bovine serum; class symbols; read-out: hTHP-1 IC50.
Regarding `Cc1c(C(F)(F)F)nc2c(c1NC(=O)N=S(N)(=O)c1nn(C(C)C)cc1F)CCC2` (single isomer, unassigned) [Example 789, (R) or (S)-4-fluoro-1-isopropyl-N′-((3-methyl-2-(trifluoromethyl)-6,7-dihydro-5H-cyclopenta[b]pyridin-4-yl)carbamoyl)-1H-pyrazole-3-sulfonimidamide], the IC50 is 40 to 200 nM.

As to `CCn1cc(F)c(S(N)(=O)=NC(=O)Nc2c3c(nc(C(F)(F)F)c2-c2ccc(F)cc2)CCC3)n1` (single isomer, unassigned) [Example 787, (R) or (S)-1-ethyl-4-fluoro-N′-((3-(4-fluorophenyl)-2-(trifluoromethyl)-6,7-dihydro-5H-cyclopenta[b]pyridin-4-yl)carbamoyl)-1H-pyrazole-3-sulfonimidamide], the half-inhibitory concentration (IC50) lay within 8 to 40 nM.

Regarding `CCn1cc(F)c(S(N)(=O)=NC(=O)Nc2c(-c3ccccc3)cnc3c2CCC3)n1` (single isomer, unassigned) [Example 794, (S) or (R)-1-ethyl-4-fluoro-N′-((3-phenyl-6,7-dihydro-5H-cyclopenta[b]pyridin-4-yl)carbamoyl)-1H-pyrazole-3-sulfonimidamide], the IC50 fell in the range of 5000 to 30000 nM.
